According to US5621133A (priority 1995, dated 1997):
Where a name gives a salt, the structure may show the parent alone. Read-outs that look alike come from different tables or passages of the source.

How the values were obtained:
dopamine D-2 receptor = dopamine D-2 receptor (Rattus norvegicus, UniProt P61169); experiment: biochemical; type: binding; conditions: rat caudate, [125I]-p-aminophenylethyl spiroperidol; read-out: D-2 Ki
Protocol: Homogenized rat caudate was the source of the D-2 receptors. […] The molar affinity of the compound for the receptor binding site was calculated by the same method used for the D-1 receptor assay, assuming a competitive interaction between the compound and the radiolabeled ligand.

[1] = test system: striatal dopamine receptors; experiment: Rotation behavior assay of in vivo activity (6-hydroxydopamine lesioned rat rotational model); conditions: for ED50 s.c. (rotation behavior): injected subcutaneously
dopamine D-1 receptor [2] = target: T1, dopamine D-1 receptor (Rattus norvegicus, UniProt P18901); conditions: read-out: D-1 Ki; rat caudate, [125I]SCH-23982
Text: (§1) The compounds compete with the radiolabeled ligand for occupancy of the receptors and the molar potency of each compound was quantified.
(§2) The Ki values are inversely proportional to the affinity of the compound for the receptor.

dopamine D-1 receptor [3] = conditions: for Intrinsic Activity (adenylate cyclase assay): dopamine = 100, goldfish retina or rat striatum; for EC50: read-out: EC50 (agonist activity in adenylate cyclase assay), tissue from goldfish retina or rat striatum
Protocol: In order to determine agonist activity, cell-free tissue homogenates are incubated in an ionic buffer solution containing ATP and the compound being evaluated. The tissue was obtained from either goldfish retina or rat striatum.

dopamine D-1 receptor [4] = target: T1, dopamine D-1 receptor; experiment: biochemical; conditions: D-1 Ki, rat caudate, [125I]SCH-23982
Text: as §1, §2

T1 sequence (P18901 whole entry): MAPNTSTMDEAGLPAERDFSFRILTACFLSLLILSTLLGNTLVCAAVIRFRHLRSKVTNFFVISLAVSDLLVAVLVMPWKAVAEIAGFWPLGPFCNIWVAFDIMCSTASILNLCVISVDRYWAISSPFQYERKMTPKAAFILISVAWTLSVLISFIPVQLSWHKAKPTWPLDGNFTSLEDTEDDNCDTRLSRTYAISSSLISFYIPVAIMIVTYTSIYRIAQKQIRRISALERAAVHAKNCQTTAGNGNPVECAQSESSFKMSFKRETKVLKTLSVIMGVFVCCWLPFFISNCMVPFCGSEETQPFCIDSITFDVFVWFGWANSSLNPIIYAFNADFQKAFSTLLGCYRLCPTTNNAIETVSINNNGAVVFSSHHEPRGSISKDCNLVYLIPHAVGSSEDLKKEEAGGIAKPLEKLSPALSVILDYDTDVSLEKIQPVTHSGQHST
Sequence of dopamine D-2 receptor (P61169 whole entry): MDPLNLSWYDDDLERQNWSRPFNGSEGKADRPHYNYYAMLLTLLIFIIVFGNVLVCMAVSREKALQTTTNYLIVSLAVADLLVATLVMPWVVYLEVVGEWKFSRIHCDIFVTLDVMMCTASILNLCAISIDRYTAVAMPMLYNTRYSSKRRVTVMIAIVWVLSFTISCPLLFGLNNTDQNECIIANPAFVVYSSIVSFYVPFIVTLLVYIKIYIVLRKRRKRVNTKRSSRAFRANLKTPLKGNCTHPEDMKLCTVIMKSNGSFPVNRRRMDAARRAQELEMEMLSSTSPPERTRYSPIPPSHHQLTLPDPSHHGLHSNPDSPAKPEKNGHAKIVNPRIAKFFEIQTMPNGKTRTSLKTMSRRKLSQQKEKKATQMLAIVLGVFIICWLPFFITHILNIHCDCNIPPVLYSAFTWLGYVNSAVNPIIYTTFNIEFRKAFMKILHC

Row | Compound | Ki (dopamine D-2 receptor) [nM] | ED50 s.c. (rotation behavior) [1] [µmol/kg] | Ki (dopamine D-1 receptor [2]) [nM] | Intrinsic Activity (adenylate cyclase assay) (dopamine D-1 receptor [3]) | EC50 (dopamine D-1 receptor [3]) [nM] | Ki (dopamine D-1 receptor [4]) [nM] | ED50 oral (rotation behavior) [1] [µmol/kg] | Intrinsic Activity (adenylate cyclase assay) (dopamine D-1 receptor [3]; Hydrobromide) | EC50 (dopamine D-1 receptor [3]; Hydrobromide) [nM]
1 | CN1CCC2=C(C1)c1ccc(O)c(O)c1CC2c1ccccc1 (stereo not drawn) [Example 247] | 1800 | 0.014 | 20 | 75 | 30 |  |  |  | 
2 | NC[C@@H]1C[C@H](C23CC4CC(CC(C4)C2)C3)Cc2c1ccc(O)c2O (relative stereo) [Example 235] | > 10000 |  | 550 | 83 | 300 |  |  |  | 
3 | CCCCCC(NC(C)=O)[C@@H]1Cc2c(ccc(O)c2O)[C@H](CN)O1 (relative stereo) [Example 162] | 710 |  | 670 | 107 | 690 |  |  |  | 
4 | Oc1ccc2c(c1O)C[C@H](c1ccccc1)C[C@H]2[C@H]1CCCN1 (relative stereo) [Example 181, [1,3-cis]5.6-Dihydroxy-3-phenyl-1-(2'-pyrrolidinyl)-1,2,3,4-tetrahydronaph-thalene Hydrobromide] | 4600 |  | 390 | 65 | 17 |  |  |  | 
5 | CCNCC1=CC(c2ccccc2)Cc2c1ccc(O)c2O (stereo not drawn) [Example 153] | > 10000 |  | 850 | 53 | 3100 |  |  |  | 
6 | NC[C@@H]1O[C@H](CCOCc2ccccc2)Cc2c1ccc(O)c2O (relative stereo) [Example 77] | 500 |  | 2300 | 107 | 93 |  |  |  | 
7 | CCC1Cc2c(ccc(O)c2O)C(CN)O1 (stereo not drawn) [Example 67] |  |  | 1900 | 92 | 230 |  |  |  | 
8 | C[C@H](N)C1OC(c2ccccc2)Cc2c1ccc(O)c2O (stereo partly drawn) [Example 108, [1,3-cis]1-(1S-(1-Amino)ethyl)-5,6-dihydroxy-3-phenyl-3,4-dihydro-1H-2-benzopyran] | > 10000 |  | 4100 |  |  |  |  |  | 
9 | CCCCCC(NC(C)=O)[C@@H]1Cc2c(ccc(O)c2O)[C@H](CN)O1 (relative stereo) [Example 163] | 830 |  | 790 | 140 | 1450 |  |  |  | 
10 | NCC1OC2(CCCCCCCC2)Cc2c1ccc(O)c2O (stereo not drawn) [Example 221] | > 10000 | > 3 |  | 84 | 80 | 90 |  |  | 
11 | CN1CCC2=C(C1)c1ccc(O)c(O)c1CC2c1ccccc1 (stereo not drawn) [Example 246] | 3200 | 0.54 | 190 | 78 | 220 |  |  |  | 
12 | Oc1ccc2c(c1O)CC1(CCCCC1)C1=C2CNCC1 [Example 205] | 1500 | 3.4 |  | 100 | 68 | 210 |  |  | 
13 | Oc1ccc2c(c1O)CC1(CCCCCC1)C1=C2CNCC1 [Example 199, Spiro[cycloheptane-1,5'-(1',2',3',4',5',6'-hexahydrobenzo[h]isoquinoline)]-7',8'-diol Hydrobromide] | 1400 | 1.5 |  |  |  | 54 | 31 | 83 | 33
14 | CNCC1OC(CC(C)(C)C)Cc2c1ccc(O)c2O (stereo not drawn) [Example 217] | 1000 | 0.12 |  | 108 | 20 | 30 |  |  | 
15 | CN(C)C[C@@H]1O[C@H](c2ccccc2)Cc2c1ccc(O)c2O (relative stereo) [Example 227] | > 10000 | 0.045 |  | 94 | 370 | 20 |  |  | 
16 | NCC1c2ccc(O)c(O)c2CC(c2ccccc2)C1CCO (stereo not drawn) [Example 45, [1,2-trans]1-Aminomethyl-5,6-dihydroxy-2-(2'-hydroxy-1'-ethyl)-3-phenyl-1,2,3,4-tetrahydronaphthalene Formic Acid Salt] | > 10000 |  | 4600 | 62 | 60 |  |  |  | 
17 | CC[C@H]1Cc2c(ccc(O)c2O)[C@@H](CN)O1 (relative stereo) [Example 51] | 3900 | 7 |  | 88 | 180 | 235 |  |  | 
18 | CCCCCC(NC(=O)CCl)[C@@H]1Cc2c(ccc(O)c2O)[C@H](CN)O1 (relative stereo) [Example 165] | 17000 |  | 1800 | 105 | 31 |  |  |  | 

Row | Compound | Ki (dopamine D-2 receptor) [nM] | ED50 s.c. (rotation behavior) [1] [µmol/kg] | Ki (dopamine D-1 receptor [2]) [nM] | Intrinsic Activity (adenylate cyclase assay) (dopamine D-1 receptor [3]) | EC50 (dopamine D-1 receptor [3]) [nM] | Ki (dopamine D-1 receptor [4]) [nM] | ED50 oral (rotation behavior) [1] [µmol/kg] | Intrinsic Activity (adenylate cyclase assay) (dopamine D-1 receptor [3]; Hydrobromide) | EC50 (dopamine D-1 receptor [3]; Hydrobromide) [nM]
19 | CNC[C@@H]1O[C@H](C2(C)CCCCC2)Cc2c1ccc(O)c2O (relative stereo) [Example 226] | 1500 | > 1 |  | 89 | 40 | 20 |  |  | 
20 | CNC[C@@H]1O[C@H](C23CC4CC(CC(C4)C2)C3)Cc2c1cc(F)c(O)c2O [Example 145] | 12000 | 0.31 |  | 49 | 38 | 67 |  |  | 
21 | CC(C)OC(=O)CCC(=O)Oc1ccc2c(c1OC(=O)CCC(=O)OC(C)C)CC(c1ccccc1)C=C2CN (stereo not drawn) [Example 24] | > 10000 |  | 900 | 71 | 500 |  |  |  | 
22 | CN(C)C[C@@H]1O[C@H](C23CC4CC(CC(C4)C2)C3)Cc2c1ccc(O)c2O [Example 148] | 4600 | 0.12 |  | 79 | 22 | 64 | 11 |  | 
23 | CNC[C@@H]1O[C@H](c2ccccc2)Cc2c1ccc(O)c2O [Example 138] | 2200 | 0.15 |  | 157 | 51 | 3 |  |  | 
24 | NC[C@H]1O[C@@H](COc2ccccc2)Cc2c1ccc(O)c2O (relative stereo) [Example 55] | 1500 | 13.6 |  | 51 | 24 | 380 |  |  | 
25 | C=CCNC[C@H]1O[C@@H](c2ccccc2)Cc2c1ccc(O)c2O (stereo in doubt) [Example 126] | 6600 | 0.16 |  | 94 | 46 | 160 | 28 |  | 
26 | CNC[C@@H]1O[C@H](C2(c3ccccc3)CCCCC2)Cc2c1ccc(O)c2O (relative stereo) [Example 225] | 1700 | > 3 |  | 76 | 130 | 90 |  |  | 
27 | CCCNCC1=CC(c2ccccc2)Cc2c1ccc(O)c2O (stereo not drawn) [Example 151] | 2500 |  | 5800 | 58 | 7000 |  |  |  | 
28 | CNCC1OC(CC2CCCC2)Cc2c1ccc(O)c2O (stereo not drawn) [Example 218] | 410 | 0.93 |  | 115 | 10 | 20 |  |  | 
29 | NC[C@@H]1O[C@H](C2(c3ccccc3)CCCCC2)Cc2c1ccc(O)c2O (relative stereo) [Example 223] | 2700 | > 3 |  | 52 | 70 | 40 |  |  | 
30 | CCCN(CCC)CC1=CC(c2ccccc2)Cc2c1ccc(O)c2O (stereo not drawn) [Example 152] | 12000 |  | 59000 |  |  |  |  |  | 
31 | NCC1OC(CC2CCCC2)Cc2c1ccc(O)c2O (stereo not drawn) [Example 215] | 800 | 0.55 |  | 114 | 20 | 20 |  |  | 
32 | NC[C@@H]1O[C@H](CC2CCCCC2)Cc2c1ccc(O)c2O (relative stereo) [Example 88] | 1500 | 0.61 |  | 133 | 12 | 130 | 32 |  | 
33 | C=CCNC[C@@H]1O[C@H](c2ccccc2)Cc2c1ccc(O)c2O (stereo in doubt) [Example 130] | 190 | 0.13 | 51 | 82 | 170 |  | 8 |  | 
34 | NCC1=CC(C23CC4CC(CC(C4)C2)C3)Cc2c1ccc(O)c2O (stereo not drawn) [Example 231] | > 10000 | > 3 |  | 85 | 90 | 300 |  |  | 
35 | Oc1ccc2c(c1O)CC1(CCCCCCCCC1)C1=C2CNCC1 [Example 240] | 5200 | > 3 |  | 70 | 130 | 750 |  |  | 
